# Tested on: TEAD-YAP/TAZ interaction
# Experiment: CTGF ELISA assay
# Type: cell-based, human
# Details: CTGF in culture supernatant of NCI-H2052 cells, 24 hours with compound
# Method: The detection of CTGF expression level can assessed the binding activity of TEAD-YAP/TAZ transcription factor, and the CTGF expression level was quantified by SimpleStep ELISA® kit (Abcam, ab261851).
# NCI-H2052 cells (Purchased from ATCC) were cultured in RPMI 1640 medium, adding 10% FBS and 1% Penicillin-Streptomycin Solution and 1 mM Sodium pyruvate. The day before compounds treatment, the cultured cells were washed with PBS and digested with trypsin, then centrifuged and collected. Discarded the supernatant, the cells were resuspended in fresh complete medium. After cells counted, cells were seeded at 6500 cells/well in 96-well plates. And then cells were cultured overnight in incubator (37° C., 5% CO2).
# After the cells were cultured overnight, discarded the culture supernatant, then washed with PBS solution, cells were incubated with 200 μl medium containing compounds in each well. The starting concentration was 10 μM and serial dilution in DMSO and medium were performed to achieve a final DMSO concentration of 0.5% (Final compounds concentration were 10000, 2500, 625, 156, 39.1, 9.77, 2.44, 0.61 nM, 0 nM (0.5% DMSO), The cells were then cultured in incubator (37° C., 5% CO2). Cultured for 24 hours, the cells were centrifuged at 1500 RPM at 4° C. for 5 minutes, and then 50 μl of culture supernatant were tested for CTGF ELISA assay.
# The Human CTGF SimpleStep ELISA® Kit (Abcam, ab261851) employs an affinity tag labeled capture antibody and a reporter conjugated detector antibody which immunocapture the sample analyte in solution. This entire complex (capture antibody/analyte/detector antibody) is in turn immobilized via immunoaffinity of an anti-tag antibody coating the well. To perform the assay, samples or standards are added to the wells, followed by the antibody mix (capture antibody/detector antibody). After incubation, the wells are washed to remove unbound material. TMB Development Solution is added and during incubation is catalyzed by HRP, generating blue coloration. This reaction is then stopped by addition of Stop Solution completing any color change from blue to yellow. Signal is generated proportionally to the amount of bound analyte and the intensity is measured at 450 nm. Firstly, prepare all reagents, samples, and standards as instructed. Add 50 μl standard or sample to appropriate wells. Then add 50 μl of the Antibody Cocktail to each well. Seal the plate and incubate for 1 hour at room temperature on a plate shaker. Wash each well with Wash Buffer three times. Add 100 μl of TMB Development Solution to each well and incubate for 10 minutes in the dark on a plate shaker. Add 100 μl of Stop Solution to each well. Shake plate on a plate shaker for 1 minute to mix. Record the OD at 450 nm. Determine the concentration of the target protein in the sample by the standard curve.
# EC50 value was determined by fitting the concentration response curves using GraphPad Prism software. The compounds of the present invention were tested for their capacity to inhibit TEAD-YAP/TAZ interaction according to the fitted curves of CTGF concentration response to compounds.
row,EC50 [nM],SMILES
1,> 10000,"C=C(F)C(=O)NCC(C(=O)O)n1nc(-c2ccc(C(F)(F)F)cc2)c2cccnc21 (stereo not shown) [Com. EX.2, 3-(2-fluoroacrylamido)-2-(3-(4-(trifluoromethyl)phenyl)-1H-pyrazolo[3,4-b]pyridin-1-yl)propanoic acid, reference compound]"
2,12,"C=CC(=O)N1CCC(n2nc(-c3ccc(C(F)(F)F)cc3F)c3cccnc32)C1 (stereo not shown) [Compound 29, 1-(3-(3-(2-fluoro-4-(trifluoro-methyl)phenyl)-1H-pyrazolo[3,4-b]pyridin-1-yl)pyrrolidin-1-yl)-prop-2-en-1-one]"
3,12,"C=CC(=O)N1CCC(n2nc(-c3ccc(C(F)(F)F)cc3)c3cccc(C(F)(F)F)c32)C1 (stereo not shown) [Compound 46, 1-(3-(7-(trifluoromethyl)-3-(4-(trifluoromethyl)phenyl)-1H-indazol-1-yl)pyrrolidin-1-yl)-prop-2-en-1-one]"
4,4.1,"C=C(F)C(=O)N1CC(n2nc(-c3ccc(C(F)(F)F)cc3)c3c2CCOC3)C1 [Compound 208, 2-fluoro-1-(3-(3-(4-(trifluoro-methyl)phenyl)-6,7-dihydro-pyrano-[4,3-c]pyrazol-1(4H)-yl)-azetidin-1-yl)prop-2-en-1-one]"
5,34,"C=C(F)C(=O)N1CC(n2nc(-c3ccc(C#N)c(C(F)(F)F)c3)c3cccnc32)C1 [Compound 178, 4-(1-(1-(2-fluoroacryloyl)azetidin-3-yl)-1H-pyrazolo[3,4-b]pyridin-3-yl)-2-(trifluoromethyl)benzo-nitrile]"
6,50,"C=CC(=O)N1CCC(n2nc(-c3ccc(C(F)(F)F)nc3)c3cccc(C(=O)NC4CC4)c32)C1 (stereo not shown) [Compound 100, 1-(1-acryloylpyrrolidin-3-yl)-N-cyclopropyl-3-(6-(trifluorometh-yl)pyridin-3-yl)-1H-indazole-7-carboxamide]"
7,24,"C=CC(=O)Nc1cc(-n2nc(-c3ccc(C(F)(F)F)cc3)c3cccnc32)ccc1Cl [Compound 189, N-(2-chloro-5-(3-(4-(trifluoro-methyl)phenyl)-1H-pyrazolo[3,4-b]pyridin-1-yl)phenyl)acrylamide]"
8,7,"C=C(C)C(=O)N1CC(n2nc(-c3ccc(C(F)(F)F)cc3)c3ncccc32)C1 [Compound 87, 2-methyl-1-(3-(3-(4-(trifluoro-methyl)phenyl)-1H-pyrazolo[4,3-b]pyridin-1-yl)azetidin-1-yl)prop-2-en-1-one]"
9,15,"C=CC(=O)N1CCC(n2nc(-c3ccc(C(F)(F)F)cc3)c3cccc(C#N)c32)C1 (stereo not shown) [Compound 48, 1-(1-acryloylpyrrolidin-3-yl)-3-(4-(trifluoromethyl)phenyl)-1H-indazole-7-carbonitrile]"
10,14,"C=CC(=O)N1CCC(n2nc(-c3ccc(C(F)(F)F)cc3)c3cccc(C)c32)C1 (stereo not shown) [Compound 39, 1-(3-(7-methyl-3-(4-(trifluoro-methyl)phenyl)-1H-indazol-1-yl)pyrrolidin-1-yl)prop-2-en-1-one]"
11,9,"C=C(F)C(=O)N1CC(n2nc(-c3ccc(C(F)(F)F)cc3)c3nccnc32)C1 [Compound 160, 2-fluoro-1-(3-(3-(4-(trifluoro-methyl)phenyl)-1H-pyrazolo[3,4-b]pyrazin-1-yl)azetidin-1-yl)prop-2-en-1-one]"
12,3.6,"C=C(F)C(=O)N1CC(n2nc(-c3ccc(C(F)(F)F)cc3)c3nc(C)n(C)c(=O)c32)C1 [Compound 225, 1-(1-(2-fluoroacryloyl)azetidin-3-yl)-5,6-dimethyl-3-(4-(trifluoro-methyl)phenyl)-1,6-dihydro-7H-pyrazolo[4,3-d]pyrimidin-7-one]"
13,32,"C=CC(=O)N1CCCC(n2nc(-c3ccc(C(F)(F)F)cc3)c3cccnc32)C1 (stereo not shown) [Compound 33, 1-(3-(3-(4-(trifluoromethyl)phen-yl)-1H-pyrazolo[3,4-b]pyridin-1-yl)piperidin-1-yl)prop-2-en-1-one]"
14,40,"C=C(F)C(=O)N1CC(n2nc(-c3ccc(C(F)(F)F)cc3)c3ccc[n+]([O-])c32)C1 [Compound 165, 1-(1-(2-fluoroacryloyl)azetidin-3-yl)-3-(4-(trifluoromethyl)phenyl)-1H-pyrazolo[3,4-b]pyridine 7-oxide]"
15,15.5,"C=CC(=O)N1CCC(c2nn(-c3ccc(C(F)(F)F)cc3)c3ccccc23)C1 (stereo not shown) [Compound 4, 1-(3-(1-(4-(trifluoromethyl)phenyl)-1H-indazol-3-yl)pyrrolidin-1-yl)prop-2-en-1-one]"
16,15,"C=C(F)C(=O)N1CC(n2c(=O)n(-c3ccc(C(F)(F)F)cc3)c3ncccc32)C1 [Compound 239, 1-(1-(2-fluoroacryloyl)azetidin-3-yl)-3-(4-(trifluoromethyl)phenyl)-1,3-dihydro-2H-imidazo[4,5-b]pyridin-2-one]"
17,0.6,"C=C(F)C(=O)N1CC(n2nc(-c3ccc(C(F)(F)F)cc3)c3ncc(OC)nc32)C1 [Compound 223, 2-fluoro-1-(3-(6-methoxy-3-(4-(trifluoromethyl)phenyl)-1H-pyrazolo[3,4-b]pyrazin-1-yl)-azetidin-1-yl)prop-2-en-1-one]"
18,16,"CC#CC(=O)N1CCC(n2nc(-c3ccc(C(F)(F)F)cc3)c3ccccc32)C1 (stereo not shown) [Compound 55, 1-(3-(3-(4-(trifluoromethyl)phen-yl)-1H-indazol-1-yl)pyrrolidin-1-yl)but-2-yn-1-one]"
19,12,"C=C(F)C(=O)N1CCC(n2nc(-c3ccc(C(F)(F)F)cc3)c3ncccc32)C1 (stereo not shown) [Compound 71, 2-fluoro-1-(3-(3-(4-(trifluoro-methyl)phenyl)-1H-pyrazolo[4,3-b]pyridin-1-yl)pyrrolidin-1-yl)-prop-2-en-1-one]"
20,137,"C=CC(=O)N1CCC(Cn2nc(-c3ccc(C(F)(F)F)cc3)c3ccccc32)C1 (stereo not shown) [Compound 34, 1-(3-((3-(4-(trifluoromethyl)phen-yl)-1H-indazol-1-yl)methyl)-pyrrolidin-1-yl)prop-2-en-1-one]"
21,24,"C=C(F)C(=O)N1CC(n2nc(-c3ccc(C(F)(F)F)cc3)c3ccc(N(C)C)nc32)C1 [Compound 122, 1-(3-(6-(dimethylamino)-3-(4-(trifluoromethyl)phenyl)-1H-pyrazolo[3,4-b]pyridin-1-yl)-azetidin-1-yl)-2-fluoroprop-2-en-1-one]"
22,97,"C=CC(=O)N1CCC(n2nc(-c3ccc(C(F)(F)F)nc3)c3cccc(C(=O)NC4COC4)c32)C1 (stereo not shown) [Compound 101, 1-(1-acryloylpyrrolidin-3-yl)-N-(oxetan-3-yl)-3-(6-(trifluorometh-yl)pyridin-3-yl)-1H-indazole-7-carboxamide]"
23,75,"C=CC(=O)N1CCC2(CCC(n3nc(-c4ccc(C(F)(F)F)cc4)c4ncccc43)C2)C1 (stereo not shown) [Compound 125, 1-(7-(3-(4-(trifluoromethyl)phen-yl)-1H-pyrazolo[4,3-b]pyridin-1-yl)-2-azaspiro[4.4]nonan-2-yl)-prop-2-en-1-one]"
24,82,"C#CC(=O)N1CCC(n2nc(-c3ccc(C(F)(F)F)cc3)c3ccccc32)C1 (stereo not shown) [Compound 57, 1-(3-(3-(4-(trifluoromethyl)phen-yl)-1H-indazol-1-yl)pyrrolidin-1-yl)prop-2-yn-1-one]"
25,11,"C=C(F)C(=O)N1CC(n2c(=O)n(-c3ccc(C(F)(F)F)cc3)c3cc(C)cnc32)C1 [Compound 244, 3-(1-(2-fluoroacryloyl)azetidin-3-yl)-6-methyl-1-(4-(trifluoromethyl)phenyl)-1,3-dihydro-2H-imidazo[4,5-b]pyridin-2-one]"
26,0.06,"C=C(F)C(=O)Nc1cc(-n2nc(-c3ccc(C(F)(F)F)cc3)c3cccnc32)ccc1OC [Compound 188, 2-fluoro-N-(2-methoxy-5-(3-(4-(trifluoromethyl)phenyl)-1H-pyrazolo[3,4-b]pyridin-1-yl)-phenyl)acrylamide]"
27,> 10000,"CC(=O)N1CCC(n2nc(-c3ccc(C(F)(F)F)cc3)c3ccccc32)C1 (stereo not shown) [Com. EX.3, 1-(3-(3-(4-(trifluoromethyl)phenyl)-1H-indazol-1-yl)pyrrolidin-1-yl)ethan-1-one, reference compound]"
28,16,"C=CC(=O)N1CCC(n2nc(-c3ccc(C(F)(F)F)cc3)c3cnccc32)C1 (stereo not shown) [Compound 23, 1-(3-(3-(4-(trifluoromethyl)phen-yl)-1H-pyrazolo[4,3-c]pyridin-1-yl)pyrrolidin-1-yl)prop-2-en-1-one]"

# — patent US20230391779A1, “BICYCLIC COMPOUNDS, COMPOSITIONS AND USE THEREOF” (Betta Pharmaceuticals Co., Ltd., priority 2020, published 2023)
